Measured values reported in patent US7786163B2, “Constrained cyano compounds” (Forest Laboratories Holdings Limited (BM), priority 2004, dated 2010).
Where a name gives a salt, the structure may show the parent alone.

Columns and labels:
Assay type in all cases: biochemical
human DPP-VIII = target: T1, human DPP-VIII (Homo sapiens, UniProt Q6V1X1); assay: DPP-VIII inhibition assay (Ala-Pro AMC), selectivity vs DPP-IV; conditions: selectivity for DPP-IV relative to DPP-VIII
T1 construct: The full length cDNAs for human DPP-VII, DPP-VIII, DPP-IX, and FAP were obtained from Open Biosystems; 6xHis (C); made in house; host or cells: S9 (Sf9) insect cells, baculovirus (pFastBac, Bac-to-Bac)
T1 sequence (Q6V1X1 whole entry): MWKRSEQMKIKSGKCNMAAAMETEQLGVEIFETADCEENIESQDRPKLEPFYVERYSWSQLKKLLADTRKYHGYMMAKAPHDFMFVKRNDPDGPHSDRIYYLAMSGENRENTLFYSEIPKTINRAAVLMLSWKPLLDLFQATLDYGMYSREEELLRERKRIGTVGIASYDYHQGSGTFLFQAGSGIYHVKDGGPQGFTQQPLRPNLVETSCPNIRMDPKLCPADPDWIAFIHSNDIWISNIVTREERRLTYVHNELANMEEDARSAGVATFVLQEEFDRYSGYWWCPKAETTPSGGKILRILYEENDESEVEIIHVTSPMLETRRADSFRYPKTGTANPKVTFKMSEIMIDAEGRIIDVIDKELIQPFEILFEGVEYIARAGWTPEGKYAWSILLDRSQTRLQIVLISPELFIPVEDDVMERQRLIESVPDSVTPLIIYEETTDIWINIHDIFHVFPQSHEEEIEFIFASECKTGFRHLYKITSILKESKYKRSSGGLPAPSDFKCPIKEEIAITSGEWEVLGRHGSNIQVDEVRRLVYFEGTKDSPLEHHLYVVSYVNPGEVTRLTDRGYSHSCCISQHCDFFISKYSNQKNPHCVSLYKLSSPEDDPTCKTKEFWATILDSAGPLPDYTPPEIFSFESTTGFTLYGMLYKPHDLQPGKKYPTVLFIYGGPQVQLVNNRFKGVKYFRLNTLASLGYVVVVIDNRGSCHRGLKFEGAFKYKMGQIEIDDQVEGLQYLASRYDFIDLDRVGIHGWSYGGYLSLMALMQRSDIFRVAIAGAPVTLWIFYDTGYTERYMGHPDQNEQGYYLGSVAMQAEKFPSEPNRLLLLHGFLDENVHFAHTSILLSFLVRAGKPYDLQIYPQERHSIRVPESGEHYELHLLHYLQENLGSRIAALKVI
Method: (§1) Materials. S9 insect cells and Sf-900 II SFM media were from Invitrogen. Anti-FLAG M2 immunoaffinity gel was from Sigma. Gly-Pro-AMC, Lys-Pro AMC, and Ala-Pro AMC were from Enzyme Systems. IC50 calculations were performed by non-linear regression analysis using Prism software (GraphPad).
(§2) Preparation of DPP-VII DPP-VIII DPP-IX, and FAP baculovirus constructs. The full length cDNAs for human DPP-VII, DPP-VIII, DPP-IX, and FAP were obtained from Open Biosystems. The cDNAs were cloned into the pFastBac vector with the addition of an N-terminal FLAG tag on DPP-VII, C-terminal 6× His tags on DPP-VIII and DPP-IX, and an N-terminal 6× His tag on FAP (Sun 2002, Qi 2003, and Chen 2004). Baculovirus was prepared using the Bac-to-Bac Baculovirus Expression System (Invitrogen). The cDNAs in the final baculovirus constructs were sequence verified.
(§3) Baculovirus expression. S9 cells were grown to mid log phase at 27C with shaking at 125 RPM and then adjusted to 2×10E6/ml just prior to baculovirus infection. Infection with DPP-VII, DPP-VIII, DPP-IX, and FAP baculoviral constructs were all performed at an MOI of 4. The infected cells were grown for 48 hours and the cell pellets harvested and frozen until purification. DPP-VII was purified using anti-FLAG immunoaffinity gel according to the manufacturer's instructions. DPP-VIII, DPP-IX, and FAP were purified using a B-PER 6× His Fusion Protein Column Purification Kit from Pierce.
(§4) C50 assay. Recombinant DPPs were diluted in reaction buffer to give fluorescence values of 5000-20000 counts in the “enzyme only wells” 20 min after addition of substrate at 27° C. Reaction buffers were 25 mM (2-(4-Morpholino)-Ethane Sulfonic Acid), pH 5.5 for DPP-VII, 25 mM Tris, pH 8, 1% Triton X-100, 100 mM NaCl for DPP-VIII, and 25 mM Tris pH 8 for DPP-IX and FAP. Test wells in a 96-well microtiter plate contained 88 uL of diluted DPP and 2.5 ul of titrated compound in 50 mM glycine, pH 2.6. “Enzyme only” wells contained 88 uL of diluted DPP and 2.5 ul of glycine buffer. “No enzyme” wells contained 88 uL of reaction buffer without DPP and 2.5 ul of glycine buffer. All assays were done in triplicate. The plate was incubated at 27° C. for 10 min and then cooled on ice for 10 min. Ten microliters of substrate diluted in reaction buffer (40 uM final concentration) without Triton or NaCl were then added to all wells followed by incubation at 27C for 20 min. Substrates were Lys-Pro AMC for DPP-VII, and Ala-Pro AMC for DPP-VIII, DPP-IX, and FAP. Fluorescence in each well was measured at settings of 380/460 nm.
(§5) Compounds of the invention were tested for inhibition of DPP-IV according to Example 4 and DPP-VII, VIII, IX and FAP according to the present methods.

human DPP-VII = target: T2, human DPP-VII (Homo sapiens, UniProt Q9UHL4); assay: DPP-VII inhibition assay (Lys-Pro AMC), selectivity vs DPP-IV; conditions: selectivity for DPP-IV relative to DPP-VII
T2 construct: The full length cDNAs for human DPP-VII, DPP-VIII, DPP-IX, and FAP were obtained from Open Biosystems; FLAG (N); made in house; host or cells: S9 (Sf9) insect cells, baculovirus (pFastBac, Bac-to-Bac)
Method: as §1, §2, §3, §4, §5

human FAP = target: T3, human FAP (Homo sapiens, UniProt Q12884); assay: FAP inhibition assay (Ala-Pro AMC), selectivity vs DPP-IV; conditions: selectivity for DPP-IV relative to FAP
T3 construct: The full length cDNAs for human DPP-VII, DPP-VIII, DPP-IX, and FAP were obtained from Open Biosystems; 6xHis (N); made in house; host or cells: S9 (Sf9) insect cells, baculovirus (pFastBac, Bac-to-Bac)
T3 sequence (Q12884 1-760): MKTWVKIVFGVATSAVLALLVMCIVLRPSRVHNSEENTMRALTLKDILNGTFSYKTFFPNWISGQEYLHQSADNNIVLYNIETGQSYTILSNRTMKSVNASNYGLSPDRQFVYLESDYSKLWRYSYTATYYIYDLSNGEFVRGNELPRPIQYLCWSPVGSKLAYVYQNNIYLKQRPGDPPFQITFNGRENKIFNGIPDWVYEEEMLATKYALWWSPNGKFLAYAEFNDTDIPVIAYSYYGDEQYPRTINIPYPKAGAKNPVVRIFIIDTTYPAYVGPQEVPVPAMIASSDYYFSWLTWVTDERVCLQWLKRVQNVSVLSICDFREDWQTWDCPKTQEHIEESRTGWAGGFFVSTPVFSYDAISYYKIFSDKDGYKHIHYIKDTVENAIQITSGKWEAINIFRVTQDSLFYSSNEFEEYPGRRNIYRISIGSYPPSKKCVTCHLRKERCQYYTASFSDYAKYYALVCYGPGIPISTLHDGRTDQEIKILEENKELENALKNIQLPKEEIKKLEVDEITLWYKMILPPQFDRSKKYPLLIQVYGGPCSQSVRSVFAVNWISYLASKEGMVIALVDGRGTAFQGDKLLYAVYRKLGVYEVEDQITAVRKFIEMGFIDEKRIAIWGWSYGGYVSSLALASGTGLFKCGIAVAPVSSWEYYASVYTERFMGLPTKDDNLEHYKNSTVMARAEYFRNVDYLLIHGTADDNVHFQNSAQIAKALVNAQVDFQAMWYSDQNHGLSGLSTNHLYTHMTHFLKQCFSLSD
Method: as §1, §2, §3, §4, §5

human DPP-IX = target: T4, human DPP-IX (Homo sapiens, UniProt Q86TI2); assay: DPP-IX inhibition assay (Ala-Pro AMC), selectivity vs DPP-IV; conditions: selectivity for DPP-IV relative to DPP-IX
T4 construct: The full length cDNAs for human DPP-VII, DPP-VIII, DPP-IX, and FAP were obtained from Open Biosystems; 6xHis (C); made in house; host or cells: S9 (Sf9) insect cells, baculovirus (pFastBac, Bac-to-Bac)
T4 sequence (Q86TI2 whole entry): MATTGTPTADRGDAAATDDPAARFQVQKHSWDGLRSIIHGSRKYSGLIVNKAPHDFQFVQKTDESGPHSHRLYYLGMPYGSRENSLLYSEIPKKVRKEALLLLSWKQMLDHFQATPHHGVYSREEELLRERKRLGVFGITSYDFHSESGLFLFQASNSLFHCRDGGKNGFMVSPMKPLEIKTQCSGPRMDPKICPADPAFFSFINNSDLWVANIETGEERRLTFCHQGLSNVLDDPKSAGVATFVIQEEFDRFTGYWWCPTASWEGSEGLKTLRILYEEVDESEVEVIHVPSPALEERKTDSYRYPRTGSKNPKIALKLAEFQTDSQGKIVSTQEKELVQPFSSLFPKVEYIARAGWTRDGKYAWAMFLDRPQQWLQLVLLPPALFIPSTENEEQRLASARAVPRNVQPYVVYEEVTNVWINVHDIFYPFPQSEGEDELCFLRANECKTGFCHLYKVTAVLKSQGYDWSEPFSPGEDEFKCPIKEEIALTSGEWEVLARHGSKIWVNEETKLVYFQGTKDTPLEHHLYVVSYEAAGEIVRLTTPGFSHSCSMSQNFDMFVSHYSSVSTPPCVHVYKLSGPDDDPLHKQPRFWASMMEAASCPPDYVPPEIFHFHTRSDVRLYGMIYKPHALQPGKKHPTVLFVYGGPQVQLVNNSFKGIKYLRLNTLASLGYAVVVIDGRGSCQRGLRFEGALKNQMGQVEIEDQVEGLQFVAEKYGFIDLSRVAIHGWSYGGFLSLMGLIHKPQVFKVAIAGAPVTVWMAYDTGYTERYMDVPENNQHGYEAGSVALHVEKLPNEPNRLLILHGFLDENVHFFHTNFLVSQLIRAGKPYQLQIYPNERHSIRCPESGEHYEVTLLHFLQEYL
Method: as §1, §2, §3, §4, §5

Structure (SMILES)	Selectivity Ratios DPP-VIII (human DPP-VIII)	Selectivity Ratios DPP-VII (human DPP-VII)	Selectivity Ratios FAP (human FAP)	Selectivity Ratios DPP-IX (human DPP-IX)
Cl.N#C[C@@H]1CS[C@H]2C[C@](N)(CC3CCCCC3)C(=O)N12 [Compound 29, 6-Amino-6-cyclohexylmethyl-5-oxo-hexahydro-pyrrolo[2,1-b]thiazole-3-carbonitrile hydrochloride]	A (A ≦ 10)	A (A ≦ 10)	C (C ≧ 100)	A (A ≦ 10)
CC[C@H](C)[C@@]1(N)C[C@@H]2SC[C@@H](C#N)N2C1=O.Cl [Compound 26, 6-Amino-6-sec-butyl-5-oxo-hexahydro-pyrrolo[2,1-b]thiazole-3-carbonitrile hydrochloride]	B (10 < B < 100)	B (10 < B < 100)	C (C ≧ 100)	A (A ≦ 10)
N#CC1CSC2CC(N)(Cc3ccccc3)C(=O)N12 (centres unmarked) [Compound 28, 6-Amino-6-benzyl-5-oxo-hexahydro-pyrrolo[2,1-b]thiazole-3-carbonitrile hydrochloride]	B (10 < B < 100)	B (10 < B < 100)	B (10 < B < 100)	B (10 < B < 100)
Cl.N#C[C@@H]1CS[C@H]2C[C@@](N)(C3CCCC3)C(=O)N12 [Compound 33]	B (10 < B < 100)	B (10 < B < 100)	B (10 < B < 100)	A (A ≦ 10)
CC[C@@]1(N)C[C@@H]2SC[C@@H](C#N)N2C1=O.Cl [Compound 21, 6-Amino-6-ethyl-5-oxo-hexahydro-pyrrolo[2,1-b]thiazole-3-carbonitrile hydrochloride]	B (10 < B < 100)	C (C ≧ 100)	C (C ≧ 100)	A (A ≦ 10)
Cl.N#C[C@@H]1CS[C@H]2C[C@@](N)(c3ccccc3)C(=O)N12 [Compound 34]	B (10 < B < 100)	C (C ≧ 100)	C (C ≧ 100)	A (A ≦ 10)
Cl.N#C[C@@H]1CS[C@H]2C[C@](N)(C3CCCCC3)C(=O)N12 [Compound 24, 6-Amino-6-cyclohexyl-5-oxo-hexahydro-pyrrolo[2,1-b]thiazole-3-carbonitrile hydrochloride]	A (A ≦ 10)	B (10 < B < 100)	C (C ≧ 100)	A (A ≦ 10)
Cl.N#C[C@@H]1CS[C@H]2C[C@@H](N)C(=O)N12 [Compound 7, 6-Amino-5-oxo-hexahydro-pyrrolo[2,1-b]thiazole-3-carbonitrile]	B (10 < B < 100)	C (C ≧ 100)	C (C ≧ 100)	A (A ≦ 10)
Cl.N#C[C@@H]1CS[C@H]2C[C@](N)(c3ccccc3)C(=O)N12 [Compound 31, 6-Amino-5-oxo-6-phenyl-hexahydro-pyrrolo[2,1-b]thiazole-3-carbonitrile hydrochloride]	C (C ≧ 100)	C (C ≧ 100)	C (C ≧ 100)	B (10 < B < 100)
Cl.N#C[C@@H]1CS[C@H]2C[C@](N)(CCc3ccccc3)C(=O)N12 [Compound 27, 6-Amino-5-oxo-6-phenethyl-hexahydro-pyrrolo[2,1-b]thiazole-3-carbonitrile hydrochloride]	A (A ≦ 10)	A (A ≦ 10)	B (10 < B < 100)	A (A ≦ 10)
Cl.N#C[C@@H]1CS[C@H]2C[C@](N)(C3CCCC3)C(=O)N12 [Compound 23, 6-Amino-6-cyclopentyl-5-oxo-hexahydro-pyrrolo[2,1-b]thiazole-3-carbonitrile hydrochloride]	A (A ≦ 10)	B (10 < B < 100)	C (C ≧ 100)	A (A ≦ 10)
CC(C)C[C@@]1(N)C[C@@H]2SC[C@@H](C#N)N2C1=O.Cl [Compound 25, 6-Amino-6-isobutyl-5-oxo-hexahydro-pyrrolo[2,1-b]thiazole-3-carbonitrile hydrochloride]	B (10 < B < 100)	A (A ≦ 10)	C (C ≧ 100)	A (A ≦ 10)
CC(C)[C@@]1(N)C[C@@H]2SC[C@@H](C#N)N2C1=O.Cl [Compound 22, 6-Amino-6-isopropyl-5-oxo-hexahydro-pyrrolo[2,1-b]thiazole-3-carbonitrile hydrochloride]	B (10 < B < 100)	C (C ≧ 100)	C (C ≧ 100)	A (A ≦ 10)
Cl.N#C[C@@H]1CS[C@H]2C[C@](N)(c3ccc(F)cc3)C(=O)N12 [Compound 30, 6-Amino-6-(4-fluoro-phenyl)-5-oxo-hexahydro-pyrrolo[2,1-b]thiazole-3-carbonitrile hydrochloride]	B (10 < B < 100)	B (10 < B < 100)	B (10 < B < 100)	A (A ≦ 10)
